Source: the NIST ThermoML archive (doi:10.1016/j.tca.2011.08.002)
Numbers after ± are expanded uncertainties.

Assays:
[1] = refractive index (Na D-line) (dimensionless); xn = mol fraction of the nth substance listed; conditions: 101 kPa, Liquid, Standard Abbe refractometry
[2] = xn = mol fraction of the nth substance listed; conditions: 101 kPa, Liquid, Vibrating tube method

C1CCC(NC2CCCCC2)CC1 [N-cyclohexylcyclohexanamine] + CCCCCO
Conditions	mass density, [2] [kg/m3]	refractive index, [1]
288.15 K, x2 = 0	915.498 ± 0.23	1.48636 ± 0.0004
288.15 K, x2 = 0.0525	913.936 ± 0.23	1.48486 ± 0.0004
288.15 K, x2 = 0.1	912.365 ± 0.23	1.48356 ± 0.0004
288.15 K, x2 = 0.2006	908.415 ± 0.23	1.47999 ± 0.0004
288.15 K, x2 = 0.2999	903.722 ± 0.23	1.47587 ± 0.0004
288.15 K, x2 = 0.3985	898.063 ± 0.23	1.47109 ± 0.0004
288.15 K, x2 = 0.5001	890.925 ± 0.23	1.46523 ± 0.0004
288.15 K, x2 = 0.5999	882.166 ± 0.23	1.45834 ± 0.0004
288.15 K, x2 = 0.6992	871.226 ± 0.23	1.45002 ± 0.0004
288.15 K, x2 = 0.7993	857.281 ± 0.24	1.43976 ± 0.0004
288.15 K, x2 = 0.8997	839.76 ± 0.24	1.42718 ± 0.0004
288.15 K, x2 = 0.9495	829.611 ± 0.24	1.41998 ± 0.0004
293.15 K, x2 = 0	911.705 ± 0.23	1.48416 ± 0.0004
293.15 K, x2 = 0.0525	910.13 ± 0.23	1.48266 ± 0.0004
293.15 K, x2 = 0.1	908.547 ± 0.23	1.48135 ± 0.0004
293.15 K, x2 = 0.2006	904.561 ± 0.23	1.47776 ± 0.0004
293.15 K, x2 = 0.2999	899.824 ± 0.23	1.47364 ± 0.0004
293.15 K, x2 = 0.3985	894.123 ± 0.24	1.46884 ± 0.0004
293.15 K, x2 = 0.5001	886.952 ± 0.24	1.46298 ± 0.0004
293.15 K, x2 = 0.5999	878.178 ± 0.24	1.4561 ± 0.0004
293.15 K, x2 = 0.6992	867.264 ± 0.24	1.4478 ± 0.0004
293.15 K, x2 = 0.7993	853.399 ± 0.24	1.4376 ± 0.0004
293.15 K, x2 = 0.8997	835.998 ± 0.24	1.4251 ± 0.0004
293.15 K, x2 = 0.9495	825.915 ± 0.24	1.41796 ± 0.0004
298.15 K, x2 = 0	907.923 ± 0.23	1.48198 ± 0.0004
298.15 K, x2 = 0.0525	906.333 ± 0.23	1.48047 ± 0.0004
298.15 K, x2 = 0.1	904.733 ± 0.23	1.47916 ± 0.0004
298.15 K, x2 = 0.2006	900.708 ± 0.23	1.47554 ± 0.0004
298.15 K, x2 = 0.2999	895.929 ± 0.23	1.47141 ± 0.0004
298.15 K, x2 = 0.3985	890.185 ± 0.24	1.4666 ± 0.0004
298.15 K, x2 = 0.5001	882.98 ± 0.24	1.46073 ± 0.0004
298.15 K, x2 = 0.5999	874.191 ± 0.24	1.45386 ± 0.0004
298.15 K, x2 = 0.6992	863.3 ± 0.24	1.44555 ± 0.0004
298.15 K, x2 = 0.7993	849.507 ± 0.24	1.43542 ± 0.0004
298.15 K, x2 = 0.8997	832.22 ± 0.24	1.42299 ± 0.0004
298.15 K, x2 = 0.9495	822.199 ± 0.24	1.41591 ± 0.0004
303.15 K, x2 = 0	904.144 ± 0.23	1.47978 ± 0.0004
303.15 K, x2 = 0.0525	902.538 ± 0.23	1.47828 ± 0.0004
303.15 K, x2 = 0.1	900.921 ± 0.23	1.47694 ± 0.0004
303.15 K, x2 = 0.2006	896.855 ± 0.23	1.47333 ± 0.0004
303.15 K, x2 = 0.2999	892.033 ± 0.23	1.46918 ± 0.0004
303.15 K, x2 = 0.3985	886.249 ± 0.24	1.46437 ± 0.0004
303.15 K, x2 = 0.5001	879.007 ± 0.24	1.4585 ± 0.0004
303.15 K, x2 = 0.5999	870.203 ± 0.24	1.45162 ± 0.0004
303.15 K, x2 = 0.6992	859.33 ± 0.24	1.44334 ± 0.0004
303.15 K, x2 = 0.7993	845.602 ± 0.24	1.43327 ± 0.0004
303.15 K, x2 = 0.8997	828.423 ± 0.24	1.4209 ± 0.0004
303.15 K, x2 = 0.9495	818.461 ± 0.24	1.41383 ± 0.0004
308.15 K, x2 = 0	900.372 ± 0.23	1.47761 ± 0.0004
308.15 K, x2 = 0.0525	898.746 ± 0.23	1.47608 ± 0.0004
308.15 K, x2 = 0.1	897.111 ± 0.23	1.47475 ± 0.0004
308.15 K, x2 = 0.2006	893.001 ± 0.23	1.47113 ± 0.0004
308.15 K, x2 = 0.2999	888.135 ± 0.24	1.46696 ± 0.0004
308.15 K, x2 = 0.3985	882.309 ± 0.24	1.46214 ± 0.0004
308.15 K, x2 = 0.5001	875.031 ± 0.24	1.45627 ± 0.0004
308.15 K, x2 = 0.5999	866.208 ± 0.24	1.44937 ± 0.0004
308.15 K, x2 = 0.6992	855.348 ± 0.24	1.44113 ± 0.0004
308.15 K, x2 = 0.7993	841.678 ± 0.24	1.43108 ± 0.0004
308.15 K, x2 = 0.8997	824.599 ± 0.24	1.41881 ± 0.0004
308.15 K, x2 = 0.9495	814.694 ± 0.24	1.41175 ± 0.0004
313.15 K, x2 = 0	896.608 ± 0.23	1.47562 ± 0.0004
313.15 K, x2 = 0.0525	894.957 ± 0.23	1.47406 ± 0.0004
313.15 K, x2 = 0.1	893.301 ± 0.23	1.47258 ± 0.0004
313.15 K, x2 = 0.2006	889.146 ± 0.23	1.4689 ± 0.0004
313.15 K, x2 = 0.2999	884.235 ± 0.24	1.46472 ± 0.0004
313.15 K, x2 = 0.3985	878.364 ± 0.24	1.45985 ± 0.0004
313.15 K, x2 = 0.5001	871.049 ± 0.24	1.45396 ± 0.0004
313.15 K, x2 = 0.5999	862.207 ± 0.24	1.44702 ± 0.0004
313.15 K, x2 = 0.6992	851.354 ± 0.24	1.43878 ± 0.0004
313.15 K, x2 = 0.7993	837.734 ± 0.24	1.42876 ± 0.0004
313.15 K, x2 = 0.8997	820.749 ± 0.24	1.41655 ± 0.0004
313.15 K, x2 = 0.9495	810.896 ± 0.24	1.40963 ± 0.0004
318.15 K, x2 = 0	892.847 ± 0.23	1.47347 ± 0.0004
318.15 K, x2 = 0.0525	891.168 ± 0.23	1.4719 ± 0.0004
318.15 K, x2 = 0.1	889.492 ± 0.23	1.47041 ± 0.0004
318.15 K, x2 = 0.2006	885.287 ± 0.24	1.46671 ± 0.0004
318.15 K, x2 = 0.2999	880.327 ± 0.24	1.46251 ± 0.0004
318.15 K, x2 = 0.3985	874.411 ± 0.24	1.45762 ± 0.0004
318.15 K, x2 = 0.5001	867.056 ± 0.24	1.45172 ± 0.0004
318.15 K, x2 = 0.5999	858.189 ± 0.24	1.4448 ± 0.0004
318.15 K, x2 = 0.6992	847.34 ± 0.24	1.43659 ± 0.0004
318.15 K, x2 = 0.7993	833.766 ± 0.24	1.42658 ± 0.0004
318.15 K, x2 = 0.8997	816.864 ± 0.24	1.41445 ± 0.0004
318.15 K, x2 = 0.9495	807.06 ± 0.24	1.40753 ± 0.0004
323.15 K, x2 = 0	889.089 ± 0.23	1.47134 ± 0.0004
323.15 K, x2 = 0.0525	887.381 ± 0.23	1.46975 ± 0.0004
323.15 K, x2 = 0.1	885.679 ± 0.24	1.46826 ± 0.0004
323.15 K, x2 = 0.2006	881.423 ± 0.24	1.46457 ± 0.0004
323.15 K, x2 = 0.2999	876.412 ± 0.24	1.46034 ± 0.0004
323.15 K, x2 = 0.3985	870.446 ± 0.24	1.45547 ± 0.0004
323.15 K, x2 = 0.5001	863.048 ± 0.24	1.44954 ± 0.0004
323.15 K, x2 = 0.5999	854.154 ± 0.24	1.44263 ± 0.0004
323.15 K, x2 = 0.6992	843.305 ± 0.24	1.43439 ± 0.0004
323.15 K, x2 = 0.7993	829.767 ± 0.24	1.42439 ± 0.0004
323.15 K, x2 = 0.8997	812.943 ± 0.24	1.4123 ± 0.0004
323.15 K, x2 = 0.9495	803.186 ± 0.24	1.40539 ± 0.0004
